14 molecules from the OPERA property sets (Mansouri et al. 2018) can be followed below.

Consider `CC1N(C)CCOC1(O)c1ccccc1` (centres undefined), for which the logP amounted to 1.92.
`CCOC1(c2ccccc2)CN(C)CC(C)O1` (centres undefined) had a log partition coefficient (logP) of 2.23.
For `CN1CCOC(O)(c2cccc(C(F)(F)F)c2)C1` (centres undefined) the value was 1.39; for `CCCCOC1(c2ccccc2)CN(C)CCO1` (centres undefined), 2.23; for `CC1C(c2ccccc2)OC(O)(c2ccccc2)CN1C` (centres undefined), 1.87.
The value for `CCOC1(c2ccccc2)OCCN(C)C1C` (centres undefined) was 2.27; that for `CN1CCOC(O)C1c1ccccc1` (centres undefined) was 0.99.
The value for `CC(C)COC1(c2ccccc2)CN(C)CCO1` (centres undefined) was 2.17; that for `C=CCOC1(c2ccccc2)CN(C)CCO1` (centres undefined) was 2.09; that for `CCCOC1(c2ccccc2)CN(C)CCO1` (centres undefined) was 2.13.
On to `CC1CN(C)CC(O)(c2ccccc2)O1` (centres undefined), for which the log partition coefficient (logP) came out at 1.79.
The value for `C#CCOC1(c2ccccc2)CN(C)CCO1` (centres undefined) was 1.87.
For `CN1CCOC(O)(c2ccc(Br)cc2)C1` (centres undefined) the value was 1.57.
The value for `CN1CCOC(O)(c2ccccc2)C1` (centres undefined) was 1.54.

One may read the logP as the decadic logarithm of the partition coefficient of the neutral form, usually between octanol and water.
